Source: patent US5624957A, “Rary-specific retinobenzoic acid derivatives” (Bristol-Myers Squibb Company, priority 1995, dated 1997)

Legend:
[1] = system: Rhino Mouse Utriculi; experiment: Rhino mouse model, reduction of utriculi (comedolytic activity); format: in vivo; settings: for ED30 (the concentration producing a 30% reduction in the rhino mouse utriculi): interpolation of regression lines of log concentration-percent reduction plots
Experimental: When representative compounds of the present invention were tested using that same procedure, the ED30 (the concentration producing a 30% reduction in the rhino mouse utriculi) values calculated by interpolation of the regression lines of the log concentration-percent reduction plots were as follows: […]

[2] = system: RAR α, β, or γ; experiment: Receptor transactivation assay, RAR subtypes taken together; format: cell-based; settings: read-out: EC50 for retinoic acid; varies for given receptors; usually in this range
Source text: Activation of just one receptor and failure to activate another is the basis for selectivity/specificity. In our definitions, "selectivity" means that the compound preferentially activates one receptor but also activates at least one other at a higher concentration and "specificity" means that the compound activates only one receptor in the concentration range tested. The details of the receptor-based transactivation assay are disclosed in the literature, e.g. see Nature 1988, 332, 850-853.
(§1) In the retinoid transactivation assay, HeLa cells are co-transfected with DNA encoding RAR α, β, or γ, and an RAR-responsive CAT (chloramphenicol acetyltransferase) reporter gene. Retinoid efficacy is measured by the concentration of induced CAT gene product as determined by ELISA assay. Retinoic acid (RA) is used as a reference compound. […] The mean EC50 value for each of the receptors is calculated using a computer generated induced-fit program.
"N.A." means that the compound had no transactivation at any dose tested (up to 10^-6 M).

[3] = target: T1, RARγ (Homo sapiens, UniProt P13631); experiment: Receptor transactivation assay, RARγ (CAT reporter, HeLa cells); format: cell-based
T1 construct: expressed in transfected cells; host or cells: HeLa
T1 sequence (P13631 1-454): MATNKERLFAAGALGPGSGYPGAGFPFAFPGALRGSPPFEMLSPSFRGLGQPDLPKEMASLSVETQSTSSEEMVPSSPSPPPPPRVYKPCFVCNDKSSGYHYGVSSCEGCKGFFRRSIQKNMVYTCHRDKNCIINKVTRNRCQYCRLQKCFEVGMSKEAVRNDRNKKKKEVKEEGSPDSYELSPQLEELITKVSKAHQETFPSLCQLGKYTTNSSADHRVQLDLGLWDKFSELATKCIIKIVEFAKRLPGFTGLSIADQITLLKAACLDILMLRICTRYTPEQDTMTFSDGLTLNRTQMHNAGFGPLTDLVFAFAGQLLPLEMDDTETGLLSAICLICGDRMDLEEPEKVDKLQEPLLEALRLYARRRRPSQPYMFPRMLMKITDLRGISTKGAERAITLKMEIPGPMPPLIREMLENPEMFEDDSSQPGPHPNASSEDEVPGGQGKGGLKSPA
Experimental: (§2) Activation of just one receptor and failure to activate another is the basis for selectivity/specificity.
as §1, with “assay.” for “assay. Retinoic acid (RA) is used as a reference compound.”

[4] = target: T2, RARβ (Homo sapiens, UniProt P10826); experiment: Receptor transactivation assay, RARβ (CAT reporter, HeLa cells); format: cell-based
T2 construct: expressed in transfected cells; host or cells: HeLa
T2 sequence (P10826 1-448 isoform P10826-2): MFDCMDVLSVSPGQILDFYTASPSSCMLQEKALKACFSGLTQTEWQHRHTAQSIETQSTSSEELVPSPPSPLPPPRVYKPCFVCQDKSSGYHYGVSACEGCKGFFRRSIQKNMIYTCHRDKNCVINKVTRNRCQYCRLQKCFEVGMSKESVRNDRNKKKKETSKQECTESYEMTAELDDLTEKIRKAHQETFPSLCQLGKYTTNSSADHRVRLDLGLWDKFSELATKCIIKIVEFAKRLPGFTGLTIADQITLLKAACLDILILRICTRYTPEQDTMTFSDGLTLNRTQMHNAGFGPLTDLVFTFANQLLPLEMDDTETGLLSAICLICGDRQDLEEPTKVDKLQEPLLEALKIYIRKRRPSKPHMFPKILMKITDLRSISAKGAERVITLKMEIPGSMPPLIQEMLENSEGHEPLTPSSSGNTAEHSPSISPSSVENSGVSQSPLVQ
Experimental: as §2
as §1, with “assay.” for “assay. Retinoic acid (RA) is used as a reference compound.”

[5] = target: T3, RARα (Homo sapiens, UniProt P10276); experiment: Receptor transactivation assay, RARα (CAT reporter, HeLa cells); format: cell-based
T3 construct: expressed in transfected cells; host or cells: HeLa
T3 sequence (P10276 1-462): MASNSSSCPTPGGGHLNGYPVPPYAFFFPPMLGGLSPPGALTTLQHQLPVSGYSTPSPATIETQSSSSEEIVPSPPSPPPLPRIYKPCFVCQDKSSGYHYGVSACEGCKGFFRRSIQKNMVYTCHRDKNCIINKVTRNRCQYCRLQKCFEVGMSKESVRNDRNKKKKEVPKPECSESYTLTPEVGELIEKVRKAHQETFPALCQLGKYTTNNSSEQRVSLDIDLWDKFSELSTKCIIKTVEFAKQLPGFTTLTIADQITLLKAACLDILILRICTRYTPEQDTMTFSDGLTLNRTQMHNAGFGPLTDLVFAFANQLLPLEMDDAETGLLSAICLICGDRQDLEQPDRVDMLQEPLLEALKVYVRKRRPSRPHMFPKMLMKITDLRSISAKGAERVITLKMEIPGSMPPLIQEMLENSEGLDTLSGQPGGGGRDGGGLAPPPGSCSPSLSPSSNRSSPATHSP
Experimental: as §2
as §1, with “assay.” for “assay. Retinoic acid (RA) is used as a reference compound.”

[6] = systemic use; cited from earlier work
[7] = rat, in vivo, po, 150 mg/kg
Source text: Compounds having the beneficial pharmacological effects of retinoids but without retinoid-induced hypertriglyceridemia would be especially desirable for oral retinoid therapy.

| SMILES | ED30 (the concentration producing a 30% reduction in the rhino mouse utriculi) [1] | Transactivation ratio γ (EC50 of test compound / EC50 of retinoic acid) [3] | also measured |
| --- | --- | --- | --- |
| CC1(C)CCC(C)(C)c2cc(C(O)C(=O)Nc3ccc(C(=O)O)cc3F)ccc21 (stereo not shown) [Example 1, 3-Fluoro-4(2'(5",6",7",8"-tetrahydro-5",5",8",8"-tetramethyl-2"-naphthyl)-2'-hydroxy)acetamidobenzoic acid] | 155 µM |  |  |
| CC1(C)CCC(C)(C)c2cc(C(O)C(=O)Nc3ccc(C(=O)O)cc3)ccc21 (stereo not shown) [Example 2] |  | 6.7 | Transactivation ratio β (EC50 of test compound / EC50 of retinoic acid) [4]: 50; Transactivation ratio α (EC50 of test compound / EC50 of retinoic acid) [5]: 66.7 |
| CC1=C(/C=C/C(C)=C/C=C/C(C)=C\C(=O)O)C(C)(C)CCC1 [13-cis-retinoic acid] |  |  | Elevation in triglyceride levels, fraction of patients treated [6]: […]; Increase in serum triglyceride levels [7]: ~ 350% |
| CC1(C)CCC(C)(C)c2cc(C(O)C(=O)Nc3ccc(C(=O)O)cc3O)ccc21 (stereo not shown) [Example 7] |  | 40 | Reduction in rhino mouse utriculi ([1]; at 16.5 mM): 32% |
| Cc1cc(C(=O)O)ccc1NC(=O)C(O)c1ccc2c(c1)C(C)(C)CCC2(C)C (stereo not shown) [Example 8] | 1050 µM | 66.7 |  |
| CC1(C)CCC(C)(C)c2cc(C(O)C(=O)Nc3ccc(C(=O)O)cc3Cl)ccc21 (stereo not shown) [Example 6] |  | 13.3 |  |
